We go through 7 compounds from US20030134779A1, “Method and composition for treatment and/or prevention of antibiotic-resistant microorganism infections” (priority 2002, published 2003).

In assay [1] the test system is S. aureus PC-1. The assay can be described thus: Bacterial growth in MHB. In kind it is cell-based, Staphylococcus aureus. The conditions noted are these: LF or LFC alone, sub-MIC. The method, then: (§1) The effect of LF or LFC at concentration sub-MICs alone or in combination with sub-MICs of antibiotics on bacterial growth rate of S. aureus, E. coli and K. pneumoniae was determined by monitoring bacterial cultures in MHB with the O.D.600 nm or by the count of colony forming unit per ml (cfu/ml). A volume of 2.5 ml of overnight cultures in MHB adjusted to 0.5-1 McFarland standard in saline were used to inoculate a final volume of 25 ml of fresh MHB containing the desired concentration of tested compounds. All flasks were then incubated at 37° C. with agitation (200 rpm) for 9 h. Aliquots were removed every hour to determine the culture turbidity using the spectrophotometer Philips PU 8800 (Pye Unican Ltd, Cambridge, UK). The combined antibiotic effect on bacterial growth was also determined using concentrations of LF in the presence of different concentrations of antibiotics. Briefly, a volume of 3 ml of fresh MHB containing desired concentration of drugs was adjusted to an optical density of 0.4 at 540 nm after an overnight culture. The culture was then incubated at 37° C with agitation (200 rpm). After incubation, aliquots were removed to determine the culture turbidity (OD540nm) or cfu/ml. To determine the influence of the level of iron on of the growth inhibition by the test compound, 5 μM of FeCl3 were added to the media.

In assay [2] the test system is S. aureus PC-1. Briefly: Cell morphology by transmission electron microscopy. In kind it is cell-based, Staphylococcus aureus. The method, then:
Bacterial cells were grown overnight on MHA or MHB containing sub-MICs of penicillin G with or without LF or LFC. Microorganisms were prepared for transmission electron microscopy by fixation with glutaraldehyde followed by ferritin labelling. This method allows good- preservation of capsular material. Briefly, bacterial cells grown in the presence or absence of antibiotics were fixed in cacodylate buffer (0.1 M, pH 7.0) containing 5% (v/v) glutaraldehyde, for 2 h at 20° C. Fixed microorganims were suspended in cacodylate buffer and allowed to react with the polycationic ferritin (Sigma Chemicals, St-Louis, Mo.; final concentration 1.0 mg/ml) for 30 min at 20° C. The reaction was slowed down by 10-fold dilution with buffer, and the microorganisms were centrifuged and washed three times in cacodylate buffer. Bacterial cells were then immobilized in 4% (w/v) agar, washed 5 times in cacodylate buffer and post-fixed with 2% (w/v) osmium tetroxide for 2 h. Washings were repeated as above, and the samples dehydrated in a graded series of acetone washes. Samples were then washed twice in propylene oxide and embedded in Spurr low-viscosity resin. Thin sections were post-stained with uranyl acetate and lead citrate and examined with an electron microscope (Philips 201) at an accelerating voltage of 60 kV.
Bacterial cells of PC-1 (a constitutively high producing β-lactamase strain) were grown overnight in MHB containing 8 μg/ml of penicillin G, 16 μg/ml of LFC alone or in combination for 4-h at 37° C. with agitation at 150 rpm. Bacteria cell morphology was evaluated by transmission electron microscopy after fixation and ferritin labelling method as previously described.

The test system of assay [3] is β-lactamase activity of S. aureus PC-1. Briefly: β-lactamase activity, nitrocefin assay, bovine LF/LFC. In kind it is cell-based. The conditions noted are these: LF 1 mg/ml (P<0.05); LFC 32 or 64 μg/ml (P<0.001). How it is done: The effects of sub-MICs of LF (1 mg/ml), LFC (32 and 64 μg/ml) alone or in combination with ampicillin (4μg/ml) or penicillin G (8 μg/ml) were evaluated on the β-lactamase activity of S. aureus strains SHY97-4320 and PC-1. The chromogenic cephalosporin nitrocefin (Becton Dickinson, Microbiology, Cockeysville, Md.) was used in a quantitative spectrophotometric assay. Bacterial cells were first exposed during 4 and 22-h to drugs in broth. The number of bacteria (cfu/ml) were determined and cells aliquots were centrifuged at each point in time. The pellets were suspended in 10 mM HEPES buffer (pH 7.4) to an OD415 nm of 1 for PC-1 and 2 for SHY97-4320. Nitrocefin (100 μM) was added to 100 μl of cells in a final volume of 1 ml. Hydrolysis was measured at 486 nm on spectrophotometer. β-lactamase activity was expressed as ΔO.D.486 nm/min and corrected for bacterial OD.

Assay [4] has as its system S. aureus strains. The assay can be described thus: Disk diffusion susceptibility test and cefinase test. In kind it is cell-based, Staphylococcus aureus. The conditions noted are these: β-lactamase producing strains. How it is done: For quality control, disk diffusion susceptibility tests, as recommended by the National Committee for Clinical Laboratory Standard, were performed on all strains using standard disk of various antibiotics. After 18 h of incubation at 37° C., the diameter of the zone of complete inhibition of bacterial growth around each disk was measured. Isolates were categorized as sensitive or resistant for a given antibiotic using the recommended interpretative guidelines of the manufacturer.
(In general: In agar diffusion tests the substance spreads into inoculated agar from a disc or well.)

In assay [5] the test system is E. coli SHY97-3923. The assay can be described thus: Bacterial growth in MHB. Format: cell-based, Escherichia coli. How it is done:
as §1

Assay [6] relates to Escherichia coli strain harboring TEM-10 beta-lactamase. The following applies: cited from earlier work.
The subject of assay [7] is Escherichia coli strain harboring TEM-12 beta-lactamase. The following applies: cited from earlier work.
The test system of assay [8] is Escherichia coli strain harboring wild TEM-1 beta-lactamase. The following applies: cited from earlier work.
Assay [9] relates to S. typhimurium strain DT 104. The following applies: isolates with decreased fluoroquinolone sensitivity; cited from earlier work.
For assay [10], the system named is S. aureus SHY97-3906. Briefly: Bacterial growth in MHB. Format: cell-based, Staphylococcus aureus. The conditions noted are these: combination of erythromycin and LF; 18-h of incubation. The method, then: as §1
Assay [11] has as its system K. pneumoniae SHY99-723. The assay can be described thus: Bacterial growth in MHB. Format: cell-based, Klebsiella pneumoniae. The method, then: as §1

As for `CC[C@H](C)[C@@H]1NC(=O)[C@H](CO)NC(=O)[C@@H]2CCCN2C(=O)[C@H](C)NC(=O)CNC(=O)[C@H](CC(C)C)NC(=O)[C@H](CCCCN)NC(=O)[C@H](CCCCN)NC(=O)[C@H](CCSC)NC(=O)[C@H](CCCNC(=N)N)NC(=O)[C@H](Cc2c[nH]c3ccccc23)NC(=O)[C@H](CCC(N)=O)NC(=O)[C@H](Cc2c[nH]c3ccccc23)NC(=O)[C@H](CCCNC(=N)N)NC(=O)[C@H](CCCNC(=N)N)NC(=O)[C@@H](NC(=O)[C@H](CCCCN)NC(=O)[C@@H](N)Cc2ccccc2)CSSC[C@@H](C(=O)N[C@H](C(=O)N[C@@H](CCCNC(=N)N)C(=O)N[C@@H](CCCNC(=N)N)C(=O)N[C@@H](C)C(=O)N[C@@H](Cc2ccccc2)C(=O)O)C(C)C)NC(=O)[C@H]([C@@H](C)O)NC1=O` [LFC], in assay [1], the growth entry is reported as “delayed growth”. The “mesosome structures arising from the septa and cell wall” value in assay [2] (LFC 16 μg/ml) is “induced formation of mesosome structures”. Further, the bacterial lysis entry in [2] (LFC 16 μg/ml alone, 4-h) is “A large percentage of lysed bacteria”. For the same compound, the “bacterial lysis by LFC” value in assay [2] (LFC 16 μg/ml in the presence of penicillin G 8 μg/ml) is “enhanced”. The “shape and size of cells” value in assay [2] (exposure to LF or LFC) is “affected the shape and the size”. The β-lactamase activity entry in assay [3] is reported as “strong”.
On to `CC1(C)S[C@@H]2[C@H](NC(=O)[C@H](N)c3ccccc3)C(=O)N2[C@H]1C(=O)O` [ampicillin], for which the “susceptibility by standard disk diffusion and cefinase test” value in assay [4] is given as “resistance”.
On to `Cc1nnc(SCC2=C(C(=O)O)N3C(=O)[C@@H](NC(=O)Cn4cnnn4)[C@H]3SC2)s1` [cefazolin], for which the growth entry in [5] (cefazolin alone (0.5 g)) was “not able to reduce growth”; in assay [5] (cefazolin with LFC), “completely inhibit bacterial growth”.
In the case of `CO/N=C(\C(=O)N[C@@H]1C(=O)N2C(C(=O)O)=C(COC(C)=O)CS[C@H]12)c1csc(N)n1` [cefotaxime], the MIC of cefotaxime in assay [6] is 0.25 µg/mL; in [8], 0.03 µg/mL. The “conventional MIC of cefotaxime” value in assay [7] is 0.06 µg/mL.
In the case of `O=C(O)c1cn(C2CC2)c2cc(N3CCNCC3)c(F)cc2c1=O` [ciprofloxacin], in assay [9], the “MIC's of ciprofloxacin” value was 0.25 to 1.0 µg/mL.
As to `CC[C@H]1OC(=O)[C@H](C)[C@@H](O[C@H]2C[C@@](C)(OC)[C@@H](O)[C@H](C)O2)[C@H](C)[C@@H](O[C@@H]2O[C@H](C)C[C@H](N(C)C)[C@H]2O)[C@](C)(O)C[C@@H](C)C(=O)[C@H](C)[C@@H](O)[C@]1(C)O` [erythromycin], the growth result in assay [10] is on record as “affected”.
Take neomycin: the “effect of neomycin on bacterial growth” value in assay [5] (16 μg/ml LFC (1/16 MIC) added) and in [5] (1 mg/ml of LF added) was “significantly enhanced” throughout. For the same compound, the “reduction of bacterial growth rate with neomycin” value in assay [11] (16 μg/ml LFC (1/16 MIC) added) and in [11] (0.5 mg/ml of LF added) was 2 times each time.
